In the supplement of paper PMC10307832 one finds relative viability data, which are given here for 9 cell lines.

What all share (assay): relative viability (nuclei count vs DMSO), 5 days (fraction); higher = more cells survive
Compound in assay [1]: C1CSC2=C(C(=O)N1)SC3=C2C=C(C=C3)O [kb NB 142-70]
The gist of the method:
(§1)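 Following overnight incubation at 37 °C, lung cancer cell lines in 1536-well plates were pinned with five library-drug doses (not always all listed) in √10 steps on vehicle-anchored plates. The cells then spent 5 days without medium change before a combined fix, permeabilisation and Hoechst stain, 4× imaging and MetaXpress nuclear counts. Viability is the treated-to-vehicle ratio of nuclei, taken as the median across plates. Only plates with control CV below 25% and at least one doubling passed.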

Compound in assay [2]: NCC(=O)Nc1ccc(-n2nc(C(F)(F)F)cc2-c2ccc3c(ccc4ccccc43)c2)cc1
The essentials: as §1

Compound in assay [3]: C1CSC2=C(C(=O)N1)SC3=C2C=C(C=C3)O [kb NB 142-70] + Cc1nc(NC(=O)N2CCC[C@H]2C(N)=O)sc1-c1ccnc(C(C)(C)C(F)(F)F)c1 [Alpelisib] (partner 2 µM)
The gist of the method: (§2)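 Lung cancer cell lines were pin-tool dosed in 1536-well plates on the day after seeding, with either a lone drug or a fixed anchor-drug dose plus five library-drug doses (not always all listed) in √10 steps. Nuclei were counted on 4× images after 5 days. Relative viability is the ratio of treated-well to vehicle-well nuclei counts, with each value a median of duplicate plates.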

Compound in assay [4]: NCC(=O)Nc1ccc(-n2nc(C(F)(F)F)cc2-c2ccc3c(ccc4ccccc43)c2)cc1 + Nc1nc2[nH]cc(CCc3ccc(C(=O)N[C@@H](CCC(=O)O)C(=O)O)cc3)c2c(=O)[nH]1 [Pemetrexed] (partner 0.2 µM)
The essentials:
as §2

In the case of LC-2-ad, the relative viability amounted to 1.09 in assay [1] (0.1 µM); 0.977 in assay [1] (1 µM); 0.886 in assay [1] (3.162 µM); 0.951 in assay [2] (0.02 µM); 1.08 in assay [2] (0.06325 µM); 1 in assay [2] (0.2 µM). In addition, the relative viability was determined as 0.968 in assay [2] (0.6325 µM); 1.01 in assay [2] (2 µM); 0.858 in assay [3] (first compound 0.1 µM); 0.958 in assay [3] (first compound 1 µM); 0.813 in assay [3] (first compound 3.162 µM); 0.28 in assay [4] (first compound 0.02 µM). Further, the relative viability in assay [4] (first compound 0.06325 µM) is 0.265; in assay [4] (first compound 0.2 µM) it was 0.292; in assay [4] (first compound 0.6325 µM) it was 0.307; in assay [4] (first compound 2 µM), 0.281.
For the cell line LCLC-97TM1, the relative viability in assay [1] (0.1 µM) came out at 1.03; in assay [1] (1 µM), 0.956; in assay [1] (3.162 µM), 0.489; in assay [2] (0.02 µM), 0.995; in assay [2] (0.06325 µM), 1.1; in assay [2] (0.2 µM) it was 1. Moreover, the relative viability in assay [2] (0.6325 µM) was determined as 1.01; in assay [2] (2 µM), 0.958; in assay [3] (first compound 0.1 µM), 0.236; in assay [3] (first compound 1 µM), 0.245; in assay [3] (first compound 3.162 µM) it was 0.181; in assay [4] (first compound 0.02 µM), 0.181. For the same cell line, the relative viability is 0.176 in assay [4] (first compound 0.06325 µM), 0.183 in assay [4] (first compound 0.2 µM), 0.178 in assay [4] (first compound 0.6325 µM) and 0.135 in assay [4] (first compound 2 µM).
LCLC-103H: the relative viability in assay [1] (0.1 µM) amounted to 1.03; in assay [1] (1 µM) it was 0.984; in assay [1] (3.162 µM) it was 1.03; in assay [2] (0.02 µM) it was 0.957; in assay [2] (0.06325 µM), 1.07; in assay [2] (0.2 µM), 0.963. In addition, the relative viability turned out to be 0.979 in assay [2] (0.6325 µM); 0.966 in assay [2] (2 µM); 0.998 in assay [3] (first compound 0.1 µM); 0.944 in assay [3] (first compound 1 µM); 0.961 in assay [3] (first compound 3.162 µM); 0.406 in assay [4] (first compound 0.02 µM). In addition, the relative viability in assay [4] (first compound 0.06325 µM) came out at 0.481; in assay [4] (first compound 0.2 µM), 0.434; in assay [4] (first compound 0.6325 µM), 0.447; in assay [4] (first compound 2 µM), 0.437.
Regarding LK-2, the relative viability stood at 1.01 in assay [1] (0.1 µM); 0.855 in assay [1] (1 µM); 0.685 in assay [1] (3.162 µM); 0.923 in assay [2] (0.02 µM); 1.05 in assay [2] (0.06325 µM); 0.935 in assay [2] (0.2 µM). Besides, the relative viability in assay [2] (0.6325 µM) turned out to be 1.06; in assay [2] (2 µM), 0.909; in assay [3] (first compound 0.1 µM), 1.1; in assay [3] (first compound 1 µM), 0.72; in assay [3] (first compound 3.162 µM), 0.438; in assay [4] (first compound 0.02 µM), 0.295. Moreover, the relative viability in assay [4] (first compound 0.06325 µM) was 0.207; in assay [4] (first compound 0.2 µM) it was 0.294; in assay [4] (first compound 0.6325 µM) it was 0.256; in assay [4] (first compound 2 µM) it was 0.217.
As to LOU-NH91, the relative viability in assay [1] (0.1 µM) amounted to 0.959; in assay [1] (1 µM), 0.974; in assay [1] (3.162 µM), 0.63; in assay [2] (0.02 µM), 0.963; in assay [2] (0.06325 µM), 1; in assay [2] (0.2 µM), 0.951. Moreover, the relative viability in assay [2] (0.6325 µM) was found to be 0.965; in assay [2] (2 µM) it was 1.06; in assay [3] (first compound 0.1 µM), 0.705; in assay [3] (first compound 1 µM) it was 0.675; in assay [3] (first compound 3.162 µM), 0.492; in assay [4] (first compound 0.02 µM), 0.356. In addition, the relative viability in assay [4] (first compound 0.06325 µM) was determined as 0.393; in assay [4] (first compound 0.2 µM) it was 0.375; in assay [4] (first compound 0.6325 µM), 0.389; in assay [4] (first compound 2 µM), 0.34.
Take LU99A: the relative viability in assay [1] (0.1 µM) is 0.94; in assay [1] (1 µM), 0.816; in assay [1] (3.162 µM), 0.637; in assay [2] (0.02 µM), 0.864; in assay [2] (0.06325 µM), 0.915; in assay [2] (0.2 µM) it was 0.987. The relative viability in assay [2] (0.6325 µM) was found to be 0.908; in assay [2] (2 µM), 0.967; in assay [3] (first compound 0.1 µM), 0.517; in assay [3] (first compound 1 µM), 0.499; in assay [3] (first compound 3.162 µM), 0.354; in assay [4] (first compound 0.02 µM) it was 0.182. Also, the relative viability in assay [4] (first compound 0.06325 µM) worked out at 0.153; in assay [4] (first compound 0.2 µM), 0.202; in assay [4] (first compound 0.6325 µM), 0.164; in assay [4] (first compound 2 µM) it was 0.168.
On to LXF-289, for which the relative viability was found to be 0.999 in assay [1] (0.1 µM); 1.03 in assay [1] (1 µM); 0.975 in assay [1] (3.162 µM); 1.01 in assay [2] (0.02 µM); 1.06 in assay [2] (0.06325 µM); 0.988 in assay [2] (0.2 µM). The relative viability worked out at 0.991 in assay [2] (0.6325 µM); 1.03 in assay [2] (2 µM); 1.03 in assay [3] (first compound 0.1 µM); 1.02 in assay [3] (first compound 1 µM); 0.917 in assay [3] (first compound 3.162 µM); 0.913 in assay [4] (first compound 0.02 µM). Moreover, the relative viability was determined as 0.956 in assay [4] (first compound 0.06325 µM), 0.914 in assay [4] (first compound 0.2 µM), 0.926 in assay [4] (first compound 0.6325 µM) and 0.767 in assay [4] (first compound 2 µM).
Take NCI-H23: the relative viability turned out to be 1.05 in assay [1] (0.1 µM); 0.689 in assay [1] (1 µM); 0.336 in assay [1] (3.162 µM); 0.863 in assay [2] (0.02 µM); 1.04 in assay [2] (0.06325 µM); 0.988 in assay [2] (0.2 µM). Also, the relative viability in assay [2] (0.6325 µM) stood at 0.904; in assay [2] (2 µM), 0.846; in assay [3] (first compound 0.1 µM) it was 0.553; in assay [3] (first compound 1 µM), 0.586; in assay [3] (first compound 3.162 µM), 0.315; in assay [4] (first compound 0.02 µM) it was 0.656. For the same cell line, the relative viability is 0.707 in assay [4] (first compound 0.06325 µM), 0.56 in assay [4] (first compound 0.2 µM), 0.63 in assay [4] (first compound 0.6325 µM) and 0.665 in assay [4] (first compound 2 µM).
As to NCI-H322M, the relative viability stood at 1.03 in assay [1] (0.1 µM); 1 in assay [1] (1 µM); 0.92 in assay [1] (3.162 µM); 1.01 in assay [2] (0.02 µM); 0.958 in assay [2] (0.06325 µM); 0.92 in assay [2] (0.2 µM). Moreover, the relative viability amounted to 0.98 in assay [2] (0.6325 µM); 0.996 in assay [2] (2 µM); 0.813 in assay [3] (first compound 0.1 µM); 0.815 in assay [3] (first compound 1 µM); 0.882 in assay [3] (first compound 3.162 µM); 0.562 in assay [4] (first compound 0.02 µM). Also, the relative viability in assay [4] (first compound 0.06325 µM) stood at 0.617; in assay [4] (first compound 0.2 µM), 0.535; in assay [4] (first compound 0.6325 µM) it was 0.643; in assay [4] (first compound 2 µM) it was 0.668.
